According to PubChem BioAssay AID180 (DTP/NCI, 2004):
Values joined by “and” are separate entries in the source; they are usually repeats but may differ in a detail not shown here. Equal values may be shown once.

System: BDF1 mice, Adenocarcinoma 755 s.c., tumor weight T/C
Assay: NCI In Vivo Anticancer Drug Screen. Data for tumor model Adenocarcinoma 755 (subcutaneous) in B6D2F1 (BDF1) mice
Conditions: endpoint: mean tumor weight, schedule: Q01DX011 (ip), higher = larger tumour
Procedure, shortened: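 Compound activity was tested in mice carrying transplanted tumors. Survival or tumor size was measured, and each value is the treated-group measurement divided by that of the vehicle-treated control group (T/C).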

[1] = dose: 37.5 mg/kg/injection, vehicle: methylcellulose (MC)
[2] = dose: 30.0 mg/kg/injection, vehicle: carboxymethylcellulose (CMC)
[3] = dose: 120.0 mg/kg/injection, vehicle: carboxymethylcellulose (CMC)
[4] = dose: 75.0 mg/kg/injection, vehicle: methylcellulose (MC)
[5] = dose: 60.0 mg/kg/injection, vehicle: carboxymethylcellulose (CMC)
[6] = dose: 25.0 mg/kg/injection, vehicle: methylcellulose (MC)
[7] = dose: 50.0 mg/kg/injection, vehicle: methylcellulose (MC)
[8] = dose: 100.0 mg/kg/injection, vehicle: methylcellulose (MC)
[9] = dose: 200.0 mg/kg/injection, vehicle: carboxymethylcellulose (CMC)
[10] = dose: 12.5 mg/kg/injection, vehicle: methylcellulose (MC)
[11] = dose: 25.0 mg/kg/injection, vehicle: carboxymethylcellulose (CMC)
[12] = dose: 100.0 mg/kg/injection, vehicle: carboxymethylcellulose (CMC)

## Fc1ccc(CSc2ncnc3c2ncn3C2CCCO2)cc1 (stereo unspecified)
dose: 4.6 mg/kg/injection, vehicle: methylcellulose (MC)
  T/C: 53 % of control
dose: 9.3 mg/kg/injection, vehicle: methylcellulose (MC)
  T/C: 45 % of control
dose: 18.7 mg/kg/injection, vehicle: methylcellulose (MC)
  T/C: 10 % of control
[1]
  T/C: 1 % of control and 3 % of control

## CNc1ncnc2c1ncn2C1CC(O)C(CO)O1 (stereo unspecified)
dose: 60.0 mg/kg/injection, vehicle: saline
  T/C: 92 % of control
dose: 120.0 mg/kg/injection, vehicle: saline
  T/C: 94 % of control

## O=c1[nH]c(=O)n(C2CC(O)C(CO)O2)cc1I (stereo unspecified)
dose: 31.25 mg/kg/injection, vehicle: carboxymethylcellulose (CMC)
  T/C: 62 % of control
dose: 62.5 mg/kg/injection, vehicle: carboxymethylcellulose (CMC)
  T/C: 65 % of control
dose: 125.0 mg/kg/injection, vehicle: carboxymethylcellulose (CMC)
  T/C: 28 % of control and 51 % of control

## Nc1[nH]c(=S)ncc1NC=O
[2]
  T/C: 90 % of control
[3]
  T/C: 91 % of control
dose: 240.0 mg/kg/injection, vehicle: carboxymethylcellulose (CMC)
  T/C: 79 % of control

## CC(C)Cn1cnc2c(SCc3ccccc3)nc(N)nc21
[1]
  T/C: 62 % of control
[4]
  T/C: 27 % of control
dose: 150.0 mg/kg/injection, vehicle: methylcellulose (MC)
  T/C: 20 % of control
dose: 300.0 mg/kg/injection, vehicle: methylcellulose (MC)
  T/C: 4 % of control

## CSc1nc(Cl)cc2nc(Cl)cn12
[2]
  T/C: 110 % of control
[5]
  T/C: 111 % of control

## COc1ccc(-n2cnc3c(N)nc(N)nc32)cc1
[6]
  T/C: 68 % of control
[7]
  T/C: 62 % of control
[8]
  T/C: 50 % of control
dose: 200.0 mg/kg/injection, vehicle: methylcellulose (MC)
  T/C: 57 % of control

## C=CCC1(CCC)C(=O)NC(=O)NC1=O
dose: 17.5 mg/kg/injection, vehicle: methylcellulose (MC)
  T/C: 79 % of control and 86 % of control
dose: 70.0 mg/kg/injection, vehicle: methylcellulose (MC)
  T/C: 23 % of control and 41 % of control
dose: 140.0 mg/kg/injection, vehicle: methylcellulose (MC)
  T/C: 42 % of control

## Clc1ncc2[nH]c(Cl)nc2n1
[2]
  T/C: 96 % of control
[5]
  T/C: 112 % of control

## Nc1nc2c(ccn2Cc2ccccc2)c(=O)[nH]1
[2]
  T/C: 92 % of control
[3]
  T/C: 106 % of control

## COc1ccc(C(=O)OCC2OC(n3cnc4c(=S)nc[nH]c43)C(OC(=O)c3ccc(OC)cc3)C2OC(=O)c2ccc(OC)cc2)cc1 (stereo unspecified)
[9]
  T/C: 28 % of control
dose: 400.0 mg/kg/injection, vehicle: carboxymethylcellulose (CMC)
  T/C: 2 % of control
dose: 800.0 mg/kg/injection, vehicle: carboxymethylcellulose (CMC)
  T/C: 7 % of control

## CCCCn1cnc2c(SCc3ccccc3F)nc(N)nc21
dose: 6.25 mg/kg/injection, vehicle: methylcellulose (MC)
  T/C: 81 % of control
[10]
  T/C: 41 % of control
[6]
  T/C: 18 % of control
[7]
  T/C: 3 % of control
[8]
  T/C: 5 % of control

## CC(C)CN(C)/N=N/c1nc[nH]c1C(N)=O
[11]
  T/C: 40 % of control
dose: 37.5 mg/kg/injection, vehicle: carboxymethylcellulose (CMC)
  T/C: 22 % of control

## CN(Cc1ccccc1)N=Nc1n[nH]nc1C(N)=O
dose: 50.0 mg/kg/injection, vehicle: carboxymethylcellulose (CMC)
  T/C: 75 % of control
[12]
  T/C: 91 % of control
[9]
  T/C: 56 % of control

## Oc1ccc2ccccc2c1N=Nc1ccc(N=Nc2ccccc2)cc1
[11]
  T/C: 121 % of control
[12]
  T/C: 116 % of control
[9]
  T/C: 108 % of control

## CC1CC(C)(O)CC(C(O)CC2CC(=O)NC(=O)C2)C1=O (stereo unspecified)
dose: 0.05 mg/kg/injection, vehicle: methylcellulose (MC)
  T/C: 71 % of control
dose: 0.1 mg/kg/injection, vehicle: alkali diluted with saline
  T/C: 62 % of control
dose: 0.1 mg/kg/injection, vehicle: methylcellulose (MC)
  T/C: 44 % of control
dose: 0.2 mg/kg/injection, vehicle: alkali diluted with saline
  T/C: 17 % of control
dose: 0.2 mg/kg/injection, vehicle: methylcellulose (MC)
  T/C: 32 % of control

## CC(C)Cn1cnc2c(SCC(=O)O)nc(N)nc21
[6]
  T/C: 114 % of control
[4]
  T/C: 85 % of control
dose: 225.0 mg/kg/injection, vehicle: methylcellulose (MC)
  T/C: 114 % of control

## Cc1ccc(CSc2nc(N)nc3c2ncn3C2OC(CO)C(O)C2O)cc1 (stereo unspecified)
[10]
  T/C: 57 % of control
[6]
  T/C: 60 % of control
[7]
  T/C: 25 % of control and 41 % of control
